Source: patent publication US11045435B2, “Methods for treating ocular diseases” (NATUREWISE BIOTECH & MEDICALS CORPORATION, priority 2016, dated 2021)

How the values were obtained:
VEGF = VEGF levels in retina, Western Blot, streptozotocin-induced diabetic retinopathy; format: in vivo, Sprague-Dawley female rats
HUVECs = test: NaN3-induced injury in HUVECs (MTT); format: cell-based, human; conditions: 72 h
Description: MTT assay was used to measure the viability of ARPE-19 cells and HUVECs. 2×10^5 ARPE-19 cells or 5×10^4 HUVECs were seeded in 96-well plates ([…]) and allowed to grow overnight. Negative control was prepared by adding 100 μl medium without cells. The cells were then treated with fresh medium with COMPOUND I (0.03, 0.1, 0.3, 1, 3 and 10 μg/ml) and/or oxidants (NaIO3, H2O2, t-BHP and NaN3) for 12, 24, or 72 hours (200 μl/well). The vehicle control group was treated with vehicle. 20 μl MTT (5 mg/ml) was added to wells, and incubated for another 4 h. After incubation, the medium was discarded and 100 μl DMSO was added to solubilize formazan produced from MTT by the viable cells. Absorbance was measured at 570 nm using a microplate reader (Bio-Rad Laboratories, Inc., CA). Cells viability was calculated according to the following formula: Viability of cells (%)=(absorbance in tested sample−absorbance in negative control)/(absorbance in vehicle control−absorbance in negative control)×100%.

[1] = tested on: Rabbit with Experimental Ocular Hypertension; test: Ocular blood flow (colored microspheres) in rabbit with experimental ocular hypertension; format: in vivo, New Zealand white rabbits; conditions: 1% topical, 50 μl
Description: Rabbits were anesthetized with 35 mg/kg ketamine and 5 mg/kg Balanzine (10% xylazine) by intramuscular injection. Half of the initial dose was given every one hour thereafter. The left ventricle was cannulated through the right carotid artery for injection of colored microspheres and the femoral artery was cannulated for collection of blood samples. The left eye was treated with one drop of proparacaine hydrochloride ophthalmic solution (Bausch & Lomb, Inc., Tampa, Fla., USA). The needle was inserted directly into the anterior chamber of the left eye, which was connected to the 40 mmHg saline manometer. The ocular hypertensive model reduced the ocular blood flow to approximately one third of the normal valued. […] The ocular blood flow was measured by colored microspheres at 0, 30, 60 and 120 minutes after treatment with COMPOUND I or vehicle. […] The blood sample was collected in a heparinized tube and the volume was recorded. […]
The details of sample processing and microspheres counting were provided by E-Z Trac (Los Angeles, Calif., USA). […] The number of microspheres was counted by the hemocytometer under the microscope. […] The protocol thereafter was the same as that used to process the blood samples, and the microspheres were counted.
The blood flow of each tissue at a certain time point was calculated according to the following formula: Qm=(Cm×Qt)/Cr. […]

Structure (SMILES): COc1ccc(COc2c(/C=C/C(=O)NO)ccc(OC)c2CC=C(C)C)cc1 [COMPOUND I]
- VEGF level in diabetic eyes, in words (VEGF; 0.5% and 1%): markedly suppressed
- VEGF level (Western Blot), DR animals as 100% (VEGF; 0.5% eye drops tid 6 weeks): 77%
- VEGF level (Western Blot), DR rats as 100% (VEGF; 1.0% eye drops tid 6 weeks): 50%
- enhancement of NaN3-induced injury (HUVECs; 10 µg/ml, 3 mM NaN3): 72%
- effect on NaN3-induced injury (HUVECs; From 0.03 μg/ml): didn't affect
- enhancement of NaN3-induced injury (HUVECs; […], 0.3 mM NaN3): 65%
- enhancement of NaN3-induced injury (HUVECs; […], 1 mM NaN3): 52%
- blood flow in ciliary body and choroid ([1]; 30 minutes and 60 minutes after instillation): markedly increased
- blood flow in all tissues (iris, ciliary body, retina, choroid) ([1]; 120 minutes after instillation): significantly increased
